This passage reports Kd results from patent US20260241049A1, “Radiopharmaceutical Compositions Targeting Glypican-3 and Uses Thereof” (RayzeBio, Inc., priority 2023, published 2026).

SMILES strings stand for the structures. Starred links: 1 amine or outer side, 2 acyl side, 3 side chain; linkers in the order of their positions; H or OH if unused. Positions of bridges follow the written chain, without caps; N, C: chain ends. Non-standard residues stand in square brackets, D forms with d. Residues, ends and D or L forms follow the SMILES beside them. Groups on a side chain read outwards from the residue. *: point of attachment. Phe(4-(1-Me-pyrazol-4-yl)) = Cn1cc(-c2ccc(C[C@H](N)C(=O)O)cc2)cn1; NMeAla(isoquinolin-7-yl) = CN[C@@H](Cc1ccc2ccncc2c1)C(=O)O; DOTA = O=C(O)CN1CCN(CC(=O)O)CCN(CC(=O)*)CCN(CC(=O)O)CC1; PEG12 = NCCOCCOCCOCCOCCOCCOCCOCCOCCOCCOCCOCCOCCC(=O)O; Phe(4-CH2COOH) = N[C@@H](Cc1ccc(CC(=O)O)cc1)C(=O)O; X2 = CN([C@@H](CC1CCN(CC(=O)O)CC1)C(=O)[*:2])[*:1]; 3Pal(6-Ph) = N[C@@H](Cc1ccc(-c2ccccc2)nc1)C(=O)O; Biotin = O=C1N[C@H]2[C@H](CS[C@H]2CCCCC(=O)*)N1; Phe(4-COOH) = N[C@@H](Cc1ccc(C(=O)O)cc1)C(=O)O; Piperazinyl(4-CH2COOH) = O=C(O)CN1CCN(*)CC1; NMe2Nal = CN[C@@H](Cc1ccc2ccccc2c1)C(=O)O; AEF = NCCOc1ccc(C[C@H](N)C(=O)O)cc1; NMeI = CC[C@H](C)[C@H](NC)C(=O)O; NMeQ = CN[C@@H](CCC(N)=O)C(=O)O; NMehSer = CN[C@@H](CCO)C(=O)O; NMeK = CN[C@@H](CCCCN)C(=O)O; NMeDap = CN[C@@H](CN)C(=O)O; NMeC = CN[C@@H](CS)C(=O)O; Carboxymethyl = O=C(O)C*; NMeA = CN[C@@H](C)C(=O)O; CO = O=C([*:1])[*:2]

The assay deals with Human Glypican3-Fc (Homo sapiens, UniProt P51654). The assay can be described thus: SPR binding to Glypican-3, Method B-3 (Glypican3-Fc captured on Protein A chip, 5-point dilution series). To be noted: SPR method B-3. As for the experimental part:
A Protein A sensor chip (Cytiva) was inserted into a Biacore T200 (Cytiva), priming was performed three times with a running buffer: HBS-P+, pH 7.4 (Cytiva), and equilibration was carried out at a flow rate of 30 μL/min. Glypican3-Fc was allowed to react for 60 seconds at a flow rate of 10 μL/min. After capturing human Glypican3-Fe, a peptide solution prepared to 10 mM in DMSO solution was diluted with a running buffer to a final concentration of 10 μM. After that, 5 serial dilution series (100 nM, 50 nM, 25 nM, 10 nM, 5 nM) of peptide solutions were prepared. Using the above samples, peptide kinetics for Glypican3 was obtained by SPR measurement. Kinetics evaluation of Glypican3 was performed by SPR measurements at a flow rate of 10 LL/min, setting the association time to 120 seconds and the disassociation time to 600 seconds.
The obtained data by Method B-1, Method B-2, Method B-3 and Method B-4 were analyzed by follow. Single Cycle Kinetics was used as the kinetics evaluation model, and curve fitting was performed using Biacore T200 Evaluation Software Version 3.0 (Cytiva).
With `CC[C@H](C)[C@@H]1NC(=O)[C@H]([C@@H](C)OC)NC(=O)[C@H](Cc2ccc(C(=O)O)cc2)NC(=O)[C@H](CNC(=O)N2CCN(CC(=O)O)CC2)N(C)C(=O)[C@H](CC(=O)O)NC(=O)[C@H](CCOC)N(C)C(=O)[C@H](CNC(=O)N2CCN(CC(=O)O)CC2)N(C)C(=O)CSC[C@@H](C(N)=O)N(C)C(=O)[C@H](Cc2ccc(-c3ccccc3)nc2)NC(=O)CNC(=O)[C@H](Cc2ccc3ccccc3c2)N(C)C(=O)[C@H](Cc2ccc(OCCN)cc2)NC1=O` [Conjugate 2-33] ({CH2CO}-[NMeDap]([CO-Piperazinyl(4-CH2COOH)])[NMehSer](Me)D[NMeDap]([CO-Piperazinyl(4-CH2COOH)])[Phe(4-COOH)]T(Me)I[AEF][NMe2Nal]G[3Pal(6-Ph)][NMeC]-NH2; thioether N-12 (inferred)), binding was put at a Kd of 0.3 nM.
Regarding `CC[C@H](C)[C@@H]1NC(=O)[C@H](Cc2ccc(C(=O)O)cc2)NC(=O)[C@H](CCCCN)N(C)C(=O)[C@H](CC(=O)O)NC(=O)[C@H](CCC(N)=O)N(C)C(=O)[C@H](CCC(N)=O)N(C)C(=O)CSC[C@@H](C(N)=O)N(C)C(=O)[C@H](Cc2ccc(-c3cnn(C)c3)cc2)NC(=O)CNC(=O)[C@H](Cc2ccc3ccccc3c2)N(C)C(=O)[C@H](Cc2ccc(CC(=O)O)cc2)NC(=O)[C@H]([C@@H](C)CC)NC1=O` [Conjugate 2-52] ({CH2CO}-[NMeQ][NMeQ]D[NMeK][Phe(4-COOH)]II[Phe(4-CH2COOH)][NMe2Nal]G[Phe(4-(1-Me-pyrazol-4-yl))][NMeC]-NH2; thioether N-12), binding was put at a Kd of 1.6 nM.
Take `CC[C@H](C)[C@@H]1NC(=O)[C@H]([C@@H](C)OC)NC(=O)[C@H](Cc2ccc(C(=O)O)cc2)NC(=O)[C@H](CCCCNC(=O)N2CCN(CC(=O)O)CC2)N(C)C(=O)[C@H](CC(=O)O)NC(=O)[C@H](CCCCNC(=O)N2CCN(CC(=O)O)CC2)N(C)C(=O)[C@H](CCCCN)N(C)C(=O)CSC[C@@H](C(N)=O)N(C)C(=O)[C@H](Cc2ccc(-c3ccccc3)nc2)NC(=O)CNC(=O)[C@H](Cc2ccc3ccncc3c2)N(C)C(=O)[C@H](Cc2ccc(OCC(=O)N3CCN(CC(=O)O)CC3)cc2)NC1=O` [Conjugate 2-32]: the equilibrium dissociation constant (Kd) – broadly, the concentration at which binding is half-saturated – was 1.8 nM.
Next, `CC[C@H](C)[C@@H]1NC(=O)[C@H]([C@@H](C)OC)NC(=O)[C@H](Cc2ccc(NCC(=O)O)nc2)NC(=O)[C@H](CNC(=O)N2CCN(CC(=O)O)CC2)N(C)C(=O)[C@H](CC(=O)O)NC(=O)[C@H](CCCCNC(=O)N2CCN(CC(=O)O)CC2)N(C)C(=O)[C@H](CCCCN)N(C)C(=O)CSC[C@@H](C(N)=O)N(C)C(=O)[C@H](Cc2ccc(-c3ccccc3)nc2)NC(=O)CNC(=O)[C@H](Cc2ccc3ccncc3c2)N(C)C(=O)[C@H](Cc2ccc(OCC(=O)O)cc2)NC1=O` [Conjugate 2-30]: 6.6 nM; `CC[C@H](C)[C@@H]1NC(=O)[C@H]([C@@H](C)OC)NC(=O)[C@H](Cc2ccc(C(=O)O)cc2)NC(=O)[C@H](CNC(=O)N2CCN(CC(=O)O)CC2)N(C)C(=O)[C@H](CC(=O)O)NC(=O)[C@H](CCOC)N(C)C(=O)[C@H](CNC(=O)N2CCN(CC(=O)O)CC2)N(C)C(=O)CSC[C@@H](C(N)=O)N(C)C(=O)[C@H](Cc2ccc(-c3ccccc3)nc2)NC(=O)CNC(=O)[C@H](Cc2ccc3ccncc3c2)N(C)C(=O)[C@H](Cc2ccc(OCCN)cc2)NC1=O` [Conjugate 2-37] ({CH2CO}-[NMeDap]([CO-Piperazinyl(4-CH2COOH)])[NMehSer](Me)D[NMeDap]([CO-Piperazinyl(4-CH2COOH)])[Phe(4-COOH)]T(Me)I[AEF][NMeAla(isoquinolin-7-yl)]G[3Pal(6-Ph)][NMeC]-NH2; thioether N-12 (inferred)): 1 nM; `CC[C@H](C)[C@@H]1NC(=O)[C@H](Cc2ccc(C(=O)O)cc2)NC(=O)[C@H](CCC(N)=O)N(C)C(=O)[C@H](CCC(N)=O)NC(=O)[C@H]([C@@H](C)CC)N(C)C(=O)[C@H](CCCCN)N(C)C(=O)CSC[C@@H](C(N)=O)N(C)C(=O)[C@H](Cc2ccc(-c3cnn(C)c3)cc2)NC(=O)CNC(=O)[C@H](Cc2ccc3ccccc3c2)N(C)C(=O)[C@H](Cc2ccc(C(=O)O)cc2)NC(=O)[C@H]([C@@H](C)CC)NC1=O` [Conjugate 2-46] ({CH2CO}-[NMeK][NMeI]Q[NMeQ][Phe(4-COOH)]II[Phe(4-COOH)][NMe2Nal]G[Phe(4-(1-Me-pyrazol-4-yl))][NMeC]-NH2; thioether N-12): 0.2 nM.
Next, `CC[C@H](C)[C@@H]1NC(=O)[C@H]([C@@H](C)OC)NC(=O)[C@H](Cc2ccc(C(=O)O)cc2)NC(=O)[C@H](CC2CCN(CC(=O)O)CC2)N(C)C(=O)[C@H](CC(=O)O)NC(=O)[C@H](CCC(N)=O)N(C)C(=O)[C@H](CCCCN)N(C)C(=O)CSC[C@@H](C(N)=O)N(C)C(=O)[C@H](Cc2ccc(-c3cnn(C)c3)cc2)NC(=O)CNC(=O)[C@H](Cc2ccc3ccccc3c2)N(C)C(=O)[C@H](Cc2ccc(CC(=O)O)cc2)NC1=O` [Conjugate 2-51] ({CH2CO}-[NMeK][NMeQ]D[X2][Phe(4-COOH)]T(Me)I[Phe(4-CH2COOH)][NMe2Nal]G[Phe(4-(1-Me-pyrazol-4-yl))][NMeC]-NH2; thioether N-12): 2.5 nM; `CC[C@H](C)[C@@H]1NC(=O)[C@H]([C@@H](C)OC)NC(=O)[C@H](Cc2ccc(C(=O)O)cc2)NC(=O)[C@H](CCC(N)=O)N(C)C(=O)[C@H](CC(=O)O)NC(=O)[C@H](CCOC)N(C)C(=O)[C@H](C)N(C)C(=O)CSC[C@@H](C(N)=O)N(C)C(=O)[C@H](Cc2ccc(-c3ccccc3)nc2)NC(=O)CNC(=O)[C@H](Cc2ccc3ccccc3c2)N(C)C(=O)[C@H](Cc2ccc(OCCN)cc2)NC1=O` [Conjugate 2-28] ({CH2CO}-[NMeA][NMehSer](Me)D[NMeQ][Phe(4-COOH)]T(Me)I[AEF][NMe2Nal]G[3Pal(6-Ph)][NMeC]-NH2; thioether N-12): 0.3 nM; `CC[C@H](C)[C@@H]1NC(=O)[C@H]([C@@H](C)OC)NC(=O)[C@H](Cc2ccc(C(=O)O)cc2)NC(=O)[C@H](CCC(N)=O)N(C)C(=O)[C@H](CC(=O)O)NC(=O)[C@H](CCOC)N(C)C(=O)[C@H](CCCCNC(=O)CN2CCN(CC(=O)O)CCN(CC(=O)O)CCN(CC(=O)O)CC2)N(C)C(=O)CSC[C@@H](C(N)=O)N(C)C(=O)[C@H](Cc2ccc(-c3ccccc3)nc2)NC(=O)CNC(=O)[C@H](Cc2ccc3ccncc3c2)N(C)C(=O)[C@H](Cc2ccc(OCC(=O)O)cc2)NC1=O` [Lu-C-63] ({CH2CO}-[NMeK](DOTA)[NMehSer](Me)D[NMeQ][Phe(4-COOH)]T(Me)IY(Carboxymethyl)[NMeAla(isoquinolin-7-yl)]G[3Pal(6-Ph)][NMeC]-NH2; thioether N-12): 1.6 nM.
In the case of `CC[C@H](C)[C@@H]1NC(=O)[C@H](Cc2ccc(C(=O)O)cc2)NC(=O)[C@H](CCC(N)=O)N(C)C(=O)[C@H](CC(=O)O)NC(=O)[C@H]([C@@H](C)CC)N(C)C(=O)[C@H](CCCCNC(=O)CCOCCOCCOCCOCCOCCOCCOCCOCCOCCOCCOCCOCCNC(=O)CCCC[C@@H]2SC[C@@H]3NC(=O)N[C@@H]32)N(C)C(=O)CSC[C@@H](C(N)=O)N(C)C(=O)[C@H](Cc2ccc(-c3ccccc3)nc2)NC(=O)CNC(=O)[C@H](Cc2ccc3ccncc3c2)N(C)C(=O)[C@H](Cc2ccc(OCC(=O)O)cc2)NC(=O)[C@H]([C@@H](C)CC)NC1=O` [PLB-64] ({CH2CO}-[NMeK]([PEG12-Biotin])[NMeI]D[NMeQ][Phe(4-COOH)]IIY(Carboxymethyl)[NMeAla(isoquinolin-7-yl)]G[3Pal(6-Ph)][NMeC]-NH2; thioether N-12) it was 1.04 nM; in that of `CC[C@H](C)[C@@H]1NC(=O)[C@H]([C@@H](C)OC)NC(=O)[C@H](Cc2ccc(C(=O)O)cc2)NC(=O)[C@H](CNC(=O)N2CCN(CC(=O)O)CC2)N(C)C(=O)[C@H](CC(=O)O)NC(=O)[C@H](CCCCNC(=O)N2CCN(CC(=O)O)CC2)N(C)C(=O)[C@H](CCCCN)N(C)C(=O)CSC[C@@H](C(N)=O)N(C)C(=O)[C@H](Cc2ccc(-c3ccccc3)nc2)NC(=O)CNC(=O)[C@H](Cc2ccc3ccncc3c2)N(C)C(=O)[C@H](Cc2ccc(OCC(=O)O)cc2)NC1=O` [Conjugate 2-29], 1 nM.
Molecule `CC[C@H](C)[C@@H]1NC(=O)[C@H](Cc2ccc(C(=O)O)cc2)NC(=O)[C@H](CCC(N)=O)N(C)C(=O)[C@H](CC(=O)O)NC(=O)[C@H](CCC(N)=O)N(C)C(=O)[C@H](CCC(N)=O)N(C)C(=O)CSC[C@@H](C(N)=O)N(C)C(=O)[C@H](Cc2ccc(-c3cnn(C)c3)cc2)NC(=O)CNC(=O)[C@H](Cc2ccc3ccccc3c2)N(C)C(=O)[C@H](Cc2ccc(OCCN)cc2)NC(=O)[C@H]([C@@H](C)CC)NC1=O` [Conjugate 2-53] ({CH2CO}-[NMeQ][NMeQ]D[NMeQ][Phe(4-COOH)]II[AEF][NMe2Nal]G[Phe(4-(1-Me-pyrazol-4-yl))][NMeC]-NH2; thioether N-12) had a Kd of 1 nM.
In the case of `CC[C@H](C)[C@@H]1NC(=O)[C@H](Cc2ccc(C(=O)O)cc2)NC(=O)[C@H](CCC(N)=O)N(C)C(=O)[C@H](CC(=O)O)NC(=O)[C@H](CCOC)N(C)C(=O)[C@H](CCCCN)N(C)C(=O)CSC[C@@H](C(N)=O)N(C)C(=O)[C@H](Cc2ccc(-c3cnn(C)c3)cc2)NC(=O)CNC(=O)[C@H](Cc2ccc3ccccc3c2)N(C)C(=O)[C@H](Cc2ccc(CC(=O)O)cc2)NC(=O)[C@H]([C@@H](C)CC)NC1=O` [Conjugate 2-48] ({CH2CO}-[NMeK][NMehSer](Me)D[NMeQ][Phe(4-COOH)]II[Phe(4-CH2COOH)][NMe2Nal]G[Phe(4-(1-Me-pyrazol-4-yl))][NMeC]-NH2; thioether N-12) it was 0.5 nM.
